From patent US8383139B2 (Bayer CropScience AG, priority 2008, dated 2013)
Like-named read-outs stand apart in the source and are kept apart here.

How the values were obtained:
[1] = tested on: Puccinia triticina; assay: Puccinia triticina test (wheat)/protective; format: in vivo; conditions: 192 h, 500 ppm active substance, protective, evaluation 8 days after inoculation, read-out: degree of effectiveness
Outline: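 Protective test: young wheat plants sprayed with compound (in N,N-dimethylacetamide/emulsifier, diluted in water) at the stated rate, dried, then inoculated with Puccinia triticina spores; 48 h at 20 °C, 100% RH, then greenhouse ~20 °C, ~80% RH. Efficacy scored 8 days post-inoculation, 0% = untreated control, 100% = no infestation.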

[2] = tested on: Alternaria solani; assay: Alternaria test (tomato)/protective; format: in vivo; conditions: 72 h, 100 ppm active substance, protective, evaluation 3 days after inoculation, read-out: degree of effectiveness
[3] = tested on: Sphaerotheca fuliginea; assay: Sphaerotheca test (cucumber)/protective; format: in vivo; conditions: Podosphaera fuliginea, 168 h, 500 ppm active substance, protective, evaluation 7 days after inoculation, read-out: degree of effectiveness
Outline: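 Young cucumber plants sprayed at the stated rate with active substance in DMF/alkylaryl polyglycol ether emulsifier diluted in water, then inoculated with Sphaerotheca fuliginea spores one day later. Kept in greenhouse at 70% relative humidity, 23° C.; scored 7 days post-inoculation as % efficacy (0% = untreated control, 100% = no infestation).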

[4] = tested on: Septoria tritici; assay: Septoria tritici test (wheat)/protective; format: in vivo; conditions: Zymoseptoria tritici, 504 h, 500 ppm active substance, protective, evaluation 21 days after inoculation, read-out: degree of effectiveness
Outline: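 Young wheat plants sprayed with compound in dimethylacetamide/emulsifier-water, then inoculated with S. tritici spores once dry. Kept 48 h at 20 °C/100% RH, 60 h at 15 °C/100% RH, then greenhouse ~15 °C/80% RH. Scored 21 days post-inoculation as % efficacy versus untreated control.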

[5] = tested on: Phakopsora pachyrhizi; assay: Phakopsora test (soybean)/protective; format: in vivo; conditions: 264 h, 500 ppm active substance, protective, evaluation 11 days after inoculation, read-out: degree of effectiveness
Procedure: • Solvent: 28.5 parts by weight of acetone • Emulsifier: 1.5 parts by weight of polyoxyethylene alkylphenyl ether (polyoxy-ethylene (16) tristearylphenyl ether)
To prepare a suitable active substance composition, 1 part by weight of active substance is mixed with the given amounts of solvent and emulsifier and the concentrate is diluted to the desired concentration using water.
For the testing of protective effectiveness, young plants are sprayed with the active substance composition at the application rate given. One day after the spraying, the plants are sprayed with an aqueous suspension of spores of Phakopsora pachyrhizi. The plants remain in a greenhouse at 20° C. and 80% relative humidity.
Evaluation is carried out 11 days after the inoculation. In this connection, 0% means a degree of effectiveness corresponding to that of the control, while a degree of effectiveness of 100% means that no infestation is observed.

[6] = log P by HPLC on reversed-phase columns (C 18), EEC Directive 79/831 Annex V.A8; format: physicochemical; conditions: reversed-phase C18 HPLC column
[7] = tested on: Uromyces appendiculatus; assay: Uromyces test (beans)/protective; format: in vivo; conditions: 240 h, 100 ppm active substance, protective, evaluation 10 days after inoculation, read-out: degree of effectiveness
Outline: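 Young bean plants were sprayed with compound (acetone/dimethylacetamide/emulsifier concentrate diluted in water), dried, then inoculated with U. appendiculatus spores. They were held 1 day at ~20 °C, 100% RH, then kept in a greenhouse at ~21 °C, ~90% RH. Efficacy was scored at 10 days post-inoculation (0% = control, 100% = no infestation).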

[8] = pH 2.3, [a] HPLC, acid region pH 2.3, 0.1% aqueous phosphoric acid and acetonitrile, read-out: log p
[9] = pH 2.3, pH 2.3, given in synthesis examples, read-out: log P (pH2.3)

SMILES | chromatographic logP [6, 8] | chromatographic logP [6, 9] | pest or weed control at 500 ppm [1] [%] | pest or weed control at 100 ppm [2] [%] | pest or weed control at 500 ppm [3] [%] | pest or weed control at 500 ppm [4] [%] | pest or weed control at 500 ppm [5] [%] | pest or weed control at 100 ppm [7] [%]
CCN(C)C=Nc1cc(C)c(Oc2nc(Cc3ccc(C)cc3[N+](=O)[O-])ns2)cc1C [Example 24, N′-(2,5-dimethyl-4-{[3-(4-methyl-2-nitrobenzyl)-1,2,4-thiadiazol-5-yl]oxy}phenyl)-N-ethyl-N-methylimidoformamide] | 1.89 |  | ≥ 70 | ≥ 70 | ≥ 70 | ≥ 70 | ≥ 80 | ≥ 70
CCN(C)C=Nc1cc(C)c(Oc2nc(Cc3ccc(Br)cc3)ns2)cc1C [Example 31, N′-(4-{[3-(4-bromobenzyl)-1,2,4-thiadiazol-5-yl]oxy}-2,5-dimethylphenyl)-N-ethyl-N-methylimidoformamide] | 2.07 |  | ≥ 70 | ≥ 70 | ≥ 70 | ≥ 70 | ≥ 80 | ≥ 70
CCN(C)C=Nc1cc(C)c(Oc2nc(Cc3ccccc3OC)ns2)cc1C [Example 49, N-ethyl-N′-(4-{[3-(2-methoxybenzyl)-1,2,4-thiadiazol-5-yl]oxy}-2,5-dimethylphenyl)-N-methylimidoformamide] | 1.83 |  | ≥ 70 | ≥ 70 | ≥ 70 | ≥ 70 | ≥ 80 | ≥ 70
CCN(C)C=Nc1cc(C)c(Oc2nc(Cc3ccc(F)cc3F)ns2)cc1C [Example 52, N′-(4-{[3-(2,4-difluorobenzyl)-1,2,4-thiadiazol-5-yl]oxy}-2,5-dimethylphenyl)-N-ethyl-N-methylimidoformamide] | 1.94 |  | ≥ 70 | ≥ 70 | ≥ 70 | ≥ 70 | ≥ 80 | ≥ 70

Further lines, with some results ahead:

chromatographic logP [6, 8] | chromatographic logP [6, 9] | SMILES | pest or weed control at 500 ppm [1] [%] | pest or weed control at 100 ppm [2] [%] | pest or weed control at 500 ppm [3] [%] | pest or weed control at 500 ppm [4] [%] | pest or weed control at 500 ppm [5] [%] | pest or weed control at 100 ppm [7] [%]
2.55 |  | CCN(C)C=Nc1cc(C)c(Oc2nc(C(C)(C)c3ccc(Cl)cc3)ns2)cc1C [Example 25, N′-[4-({3-[2-(4-chlorophenyl)propan-2-yl]-1,2,4-thiadiazol-5-yl}oxy)-2,5-dimethylphenyl]-N-ethyl-N-methylimidoformamide] | ≥ 70 | ≥ 70 | ≥ 70 | ≥ 70 | ≥ 80 | ≥ 70
2.31 | 2.31 | CCN(C)C=Nc1cc(C)c(Oc2nc(Cc3cccc(Cl)c3)ns2)cc1C [Example 35, N′-(4-{[3-(3-chlorobenzyl)-1,2,4-thiadiazol-5-yl]oxy}-2,5-dimethylphenyl)-N-ethyl-N-methylimidoformamide] | ≥ 70 | ≥ 70 | ≥ 70 | ≥ 70 | ≥ 80 | ≥ 70
2.21 | 2.28 | CCN(C)C=Nc1cc(C)c(Oc2nc(C3(c4ccc(Cl)cc4)CC3)ns2)cc1C [Example 37, N′-[4-({3-[1-(4-chlorophenyl)cyclopropyl]-1,2,4-thiadiazol-5-yl}oxy)-2,5-dimethylphenyl]-N-ethyl-N-methylimidoformamide] | ≥ 70 | ≥ 70 | ≥ 70 | ≥ 70 | ≥ 80 | ≥ 70
2.55 |  | CCN(C)C=Nc1cc(Cl)c(Oc2nc(C3(c4ccc(Cl)cc4)CC3)ns2)cc1C [Example 40, N′-[5-chloro-4-({3-[1-(4-chlorophenyl)cyclopropyl]-1,2,4-thiadiazol-5-yl}oxy)-2-methylphenyl]-N-ethyl-N-methylimidoformamide] | ≥ 70 | ≥ 70 | ≥ 70 | ≥ 70 | ≥ 80 | ≥ 70
